From paper PMC9519446, “Discovery of an Orally Active Benzoxaborole Prodrug Effective in the Treatment of Chagas Disease in Non-human Primates” (Nature microbiology, 2022)
Where “and” joins values, the source holds several entries; their conditions need not be identical. Equal values may be shown once.

Key:
[1] = system: metallocarboxypeptidase 2 disrupted T. cruzi intracellular amastigote; experiment: Intracellular amastigote assay with metallocarboxypeptidase 2 (TcCLB.504045.60) disrupted T. cruzi; format: cell-based, Trypanosoma cruzi; conditions: Fig. S1
Text: activity of AN14353 on intracellular amastigote (b). Representative microphotographs of assays repeated at least three times are shown. Data are presented as mean values +/- SEM; n= 3 […]
(1 picture or pasted object on this page, not shown here)

[2] = system: wild-type and peptidase knockout T. cruzi epimastigotes and amastigotes; experiment: LC-MS/MS analysis of intracellular AN15368 and AN14667 (uptake and conversion); format: cell-based, Trypanosoma cruzi; conditions: epimastigotes 10 uM, amastigotes 50 nM; WT vs CBP KO
Experimental: The cells were then pelleted and resuspended in 100 μL of PBS. The cell suspension was mixed with 200 μl of acetonitrile and centrifuged at 735 gfor 10 minutes at room temperature. After extraction, the supernatant was further diluted with methanol:water 30:70 (v/v) containing 0.4 nM internal standard (IS) AN14817 to a concentration within the calibration range. Each sample was diluted in triplicate to provide technical replicates and the diluted sample (10 μL) was injected for subsequent LC-MS/MS analysis.
LC-MS/MS analysis was performed on a Waters ACQUITY I-Class UPLC system coupled to a Xevo TQ-S triple quadrupole mass spectrometer. An ACQUITY UPLC BEH C18 column (130 Å, 1.7 μm, 2.1 mm x 50 mm) was used for chromatographic separation, and the column temperature was 40 °C. The mobile phase consisted of water (A) and methanol (B), both containing 0.1% (v/v) formic acid. The following gradient elution was performed at a flow rate of 0.4 mL/min: 0 – 0.5 min, 30% B; 0.5 – 3 min, 30 – 95% B; 3 – 4 min, 95% B; 4 – 4.1 min, 95 – 30% B; and 4.1 – 5 min, 30% B. The MS ionization was carried out in the positive electrospray ionization (ESI) mode with following conditions: capillary voltage = 1.50 kV; desolvation temperature = 500 °C; desolvation gas flow = 1000 L/h; and nebulizer gas pressure = 7.0 bar. […] Data were processed using TargetLynx v4.1 software (Waters).

[3] = system: Luciferase expressing T. cruzi (Colombiana strain); experiment: Low dose short treatment (whole body bioluminescence); format: in vivo, Hairless mice (SKH-1)
Text: Bioluminiscence signal of the whole body was measure after D-luciferin injection in a Lumina II IVIS in vivo imager equipped with the Living Imaging 4.0 software (PerkinElmer).

| SMILES | impact of metallocarboxypeptidase 2 disruption on activity [1] | accumulation and conversion to cleaved product AN14667 [2] | Bioluminiscence signals of mice ([3]; AN15368_2.5mg, 19 dpi) | Bioluminiscence signals of mice ([3]; AN15368_5mg, 15 dpi) | Bioluminiscence signals of mice ([3]; AN15368_5mg, 19 dpi) |
| --- | --- | --- | --- | --- | --- |
| Cc1c(C(=O)NC(C(=O)OCc2ccc(F)c(F)c2)C(C)C)ccc2c1B(O)OC2 (centres unmarked) [AN14353] | Lack of impact | – | – | – | – |
| Cc1c(C(=O)N[C@H](C(=O)OCC2CCOCC2)C(C)C)ccc2c1B(O)OC2 [AN15368] | – | conversion to the cleaved product in wild-type T. cruzi epimastigotes and amastigotes but not in the KO line | 29400000 and 22400000 and 35610000 and 24370000 | 8923000 and 11990000 | 2040000 |
